Test results: patent US20170172945A1, “METHODS OF TREATING BREAST CANCER” (Mitchell Woods Pharmaceuticals, Inc., priority 2014, published 2017)

Key:
Type in all cases: cell-based, Human
MCF-7 cells [1] = test: [3H]-thymidine incorporation assay in MCF-7 cells; details: serum-starved, 24 hours
Experimental: (§1) Cells were seeded in 12-well plates at approximately 50,000 cells/well and incubated at 37° C. After 24 hours, the wells were rinsed with PBS and replaced with serum-free medium containing the appropriate concentration of the test compounds. After another 24-hour incubation at 37° C., 1 μCi of [^3H]-thymidine was added to each well and incubated at 37° C. for 16 hours. […] The lysate was then mixed with 3 mL of liquid scintillation cocktail (Beckman Coulter, Inc., Brea, Calif.), and radioactivity was measured by liquid scintillation counting using Beckman Coulter LS6000IC Scintillation Counter. Data are shown as CPM incorporated compared to the control cells.
(§2) CF-7 cells and MDA-MB-231 cells were seeded out on E-Plates and allowed to settle. Cells were stimulated with MNF. Cellular proliferation and adherence was measured every 15 minutes using xCELLigence RTCA station. The serum-starved cells were incubated with various amounts of (R,R′)-MNF concentrations for 24 hours and the levels of [3H]thymidine incorporation were measured.

MDA-MB-231 cells [2] = test: [3H]-thymidine incorporation assay in MDA-MB-231 cells; details: serum-starved, 24 hours
Experimental: as §1, §2

ERK [3] = test: basal phosphorylation levels of ERK in MCF-7 cells; details: serum starved for 3 hours, compound for 15 minutes
Experimental: (§3) Levels of ERK1/2 and its phosphorylated forms were determined using PathScan ELISA kits according to manufacturer's protocol (Perkin Elmer Alphascreen Surefire ERK1/2 assay kit, cat no. TGRES500).
(§4) (R,R′)-MNF decreased basal phosphorylation levels of ERK. MCF-7 and MDA-MB-231 cells were serum starved for 3 hours and subjected to compound of interest or vehicle for 15 minutes. The levels of phosphorylated ERK were determined in MNF-treated MCF-7 and MDA-MB-231 cells.

ERK [4] = test: basal phosphorylation levels of ERK in MDA-MB-231 cells; details: serum starved for 3 hours, compound for 15 minutes
Experimental: as §3, §4

MCF-7 cells [5] = test: cell cycle analysis in MCF-7 cells
Experimental: (§5) Cell cycle distributions were performed by flow cytometry on propidium iodide-stained nuclei prepared by the NEVI technique. DNA histograms of at least 10,000 cells acquired on a Becton-Dickinson FACScanto II (BD Biosciences, San Jose, Calif.) were deconvoluted using the Multicycle program (Phoenix Flow Systems) for estimates of the percentage of cells in the G0/1, S, and G2+M phases of the cell cycle. Debris and doublets were removed from the analysis by software algorithms.

MDA-MB-231 cells [6] = test: cell cycle analysis in MDA-MB-231 cells
Experimental: as §5

Cyclin D1 [7] = test: expression of Cyclin D1 in MDA-MB-231 cells
Experimental: (§6) Cells were lysed with RIPA buffer containing EGTA and EDTA (Boston BioProducts, Ashland, Mass.). The lysis buffer was mixed with a protease inhibitor cocktail (Sigma-Aldrich). Protein concentrations were measured using the bicinchoninic acid reagent (Thermo-Pierce Biotechnology, Inc., Rockford, Ill.). Proteins (20 μg/well) were separated on 4-12% precast gels (Invitrogen, Carlsbad, Calif.) using SDS-polyacrylamide gel electrophoresis under reducing conditions and were electrophoretically transferred onto polyvinylidene fluoride membrane (Invitrogen). Western blots were performed according to standard methods. The visualization of immunoreactive bands was performed using the ECL Plus Western Blotting Detection System (GE Healthcare, NJ) and their quantification was done by volume densitometry using Image J software and normalization to β-actin. The primary antibody for β2-APv was obtained from Enzo Life Sciences, Inc. (Cat. # AD 1-905-742-100, Farmingdale, N.Y.); rabbit anti-phospho-Akt (Ser-473), phospho-ERK1/2, total Akt and total ERK2 were from Cell Signaling Technology (Beverly, Mass.), and anti-P-actin was from Abeam (Cambridge, Mass.). The antibodies were used at a dilution recommended by the manufacturer.
(§7) The effect of MNF on expression of the cell cycle regulatory proteins Cyclin D1 and Cyclin B1 in MCF-7 cells and MDA-MB-231 cells was evaluated. […]

Cyclin D1 [8] = test: expression of Cyclin D1 in MCF-7 cells
Experimental: as §6, §7

Cyclin B1 = test: expression of Cyclin B1 in MCF-7 cells
Experimental: as §6, §7

[9] = system: Multidrug resistance protein (Mdr); test: expression of Multidrug resistance protein (Mdr) in MCF-7 cells
Excerpt: As shown therein, MNF reduces the expression of Multidrug resistance protein (Mdr) in MCF-7 cells.

MCF-7 cells [10] = test: proliferation of MCF-7 cells (xCELLigence RTCA)
Experimental: as §2, with “measured. MNF inhibited the incorporation of radiolabelled thymidine in both CF-7 cells and MDA-MB-231 cells.” for “measured.”

MDA-MB-231 cells [11] = test: proliferation of MDA-MB-231 cells (xCELLigence RTCA)
Experimental: as §2, with “measured. MNF inhibited the incorporation of radiolabelled thymidine in both CF-7 cells and MDA-MB-231 cells.” for “measured.”

SMILES	blocking of the inhibitory effect of MNF on [3H]thymidine incorporation (MCF-7 cells [1]; with MNF)	blocking of the inhibitory effect of MNF on [3H]thymidine incorporation (MDA-MB-231 cells [2]; with MNF)	basal phosphorylation levels of ERK (ERK [3])	basal phosphorylation levels of ERK (ERK [4])	arrest of the cell cycle (MCF-7 cells [5])	arrest of the cell cycle (MDA-MB-231 cells [6])	expression of Cyclin D1 (Cyclin D1 [7])	expression of Cyclin D1 (Cyclin D1 [8])	expression of Cyclin B1 (Cyclin B1)	expression of Multidrug resistance protein (Mdr) [9]	growth of cancer cells (MCF-7 cells [10])	proliferation (MCF-7 cells [10])	growth of cancer cells (MDA-MB-231 cells [11]; MDA-MB-231 cells)	proliferation (MDA-MB-231 cells [11]; MDA-MB-231 cells)	sensitivity to MNF compared with MCF-7 cancer cells (MDA-MB-231 cells [11]; MDA-MB-231 cells vs MCF-7 cells)	levels of [3H]thymidine incorporation (MCF-7 cells [1])	levels of [3H]thymidine incorporation (MDA-MB-231 cells [2])
Cc1ccc(OCC(O)C(C)NC(C)C)c2c1CCC2 (centres unmarked) [ICI 118,551, 3-(isopropylamino)-1-[(7-methyl-4-indanyl)oxy]butan-2-ol, reference compound]	not	not															
COc1ccc(C[C@@H](C)NC[C@H](O)c2cc(O)cc(O)c2)c2ccccc12 [MNF, (R,R′)-4′-methoxy-1-naphthylfenoterol]			decreased	decreased	G2/M phase arrested cell population was increased	arrested at G1/S phase	reduced	unchanged	reduced	reduces	inhibit	inhibit	inhibit	inhibit	significantly more sensitive	inhibited	inhibited
